Data from PubChem BioAssay AID2060605 (Molecular Pharmacology Branch, DTP, NCI, 2025).
Several values for one entry are separate records, joined by “and”; a condition that tells them apart may be missing. Equal values may be shown once.

System: 947758-054-R-J2-PDC spheroid growth, percent test/control
Test: Anticancer human tumor 947758-054-R-J2-PDC patient-derived colon adenocarcinoma cell line growth inhibition [CLK]
Conditions: spheroids with HUVEC and MSC; for viability, T/C: stronger effect = lower value
Summary of the method: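 Patient-derived tumor cells grown as complex spheroids with HUVEC endothelial cells and mesenchymal stem cells, treated with drug combinations. Concentrations descend in half-log steps from near clinical Cmax, or from 10 microM if Cmax unknown.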

[1] = curve of first compound, second compound 0.0316 µM
[2] = curve of first compound, second compound 0.1 µM
[3] = curve of first compound, second compound 0.316 µM
[4] = curve of first compound, second compound 1 µM
[5] = curve of first compound, second compound 3.16 µM
[6] = curve of first compound, second compound 10 µM
[7] = second compound 0.0316 µM, first compound 0.0316 µM
[8] = second compound 0.0316 µM, first compound 0.1 µM
[9] = second compound 0.0316 µM, first compound 0.316 µM
[10] = second compound 0.0316 µM, first compound 1 µM
[11] = second compound 0.0316 µM, first compound 3.16 µM
[12] = second compound 0.0316 µM, first compound 10 µM
[13] = second compound 0.1 µM, first compound 0.0316 µM
[14] = second compound 0.1 µM, first compound 0.1 µM
[15] = second compound 0.1 µM, first compound 0.316 µM
[16] = second compound 0.1 µM, first compound 1 µM
[17] = second compound 0.1 µM, first compound 3.16 µM
[18] = second compound 0.1 µM, first compound 10 µM
[19] = second compound 0.316 µM, first compound 0.0316 µM
[20] = second compound 0.316 µM, first compound 0.1 µM
[21] = second compound 0.316 µM, first compound 0.316 µM
[22] = second compound 0.316 µM, first compound 1 µM
[23] = second compound 0.316 µM, first compound 3.16 µM
[24] = second compound 0.316 µM, first compound 10 µM
[25] = second compound 1 µM, first compound 0.0316 µM
[26] = second compound 1 µM, first compound 0.1 µM
[27] = second compound 1 µM, first compound 0.316 µM
[28] = second compound 1 µM, first compound 1 µM
[29] = second compound 1 µM, first compound 3.16 µM
[30] = second compound 1 µM, first compound 10 µM
[31] = second compound 3.16 µM, first compound 0.0316 µM
[32] = second compound 3.16 µM, first compound 0.1 µM
[33] = second compound 3.16 µM, first compound 0.316 µM
[34] = second compound 3.16 µM, first compound 1 µM
[35] = second compound 3.16 µM, first compound 3.16 µM
[36] = second compound 3.16 µM, first compound 10 µM
[37] = second compound 10 µM, first compound 0.0316 µM
[38] = second compound 10 µM, first compound 0.1 µM
[39] = second compound 10 µM, first compound 0.316 µM
[40] = second compound 10 µM, first compound 1 µM
[41] = second compound 10 µM, first compound 3.16 µM
[42] = second compound 10 µM, first compound 10 µM
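Note: spheroids exposed to compounds for one week before readout.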
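Throughout, for viability, T/C: 100% = DMSO vehicle control wells.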

## CCCS(=O)(=O)Nc1ccc(F)c(C(=O)c2c[nH]c3ncc(-c4ccc(Cl)cc4)cc23)c1F + CNC(=O)c1ccc(Nc2nc(OC3CCCC3)c3c(-c4ccc5nc(C)oc5c4)c[nH]c3n2)c(OC)c1
[1]
  IC50: < 0.0316 µM
[2]
  IC50: < 0.0316 µM
[3]
  IC50: 0.0326 µM
[4]
  IC50: < 0.0316 µM
[5]
  IC50: < 0.0316 µM
[6]
  IC50: < 0.0316 µM
[7]
  viability, T/C: 39.4%
[8]
  viability, T/C: 44.1%
[9]
  viability, T/C: 31.6%
[10]
  viability, T/C: 53.5%
[11]
  viability, T/C: 47.7%
[12]
  viability, T/C: 31.5%
[13]
  viability, T/C: 45.5%
[14]
  viability, T/C: 37.9%
[15]
  viability, T/C: 29%
[16]
  viability, T/C: 28.2%
[17]
  viability, T/C: 24.6%
[18]
  viability, T/C: 17.2%
[19]
  viability, T/C: 50.4%
[20]
  viability, T/C: 33.6%
[21]
  viability, T/C: 18.8%
[22]
  viability, T/C: 22.5%
[23]
  viability, T/C: 23.9%
[24]
  viability, T/C: 11.2%
[25]
  viability, T/C: 37.6%
[26]
  viability, T/C: 25.5%
[27]
  viability, T/C: 16.9%
[28]
  viability, T/C: 13.6%
[29]
  viability, T/C: 14.4%
[30]
  viability, T/C: 4.09%
[31]
  viability, T/C: 30.2%
[32]
  viability, T/C: 20.7%
[33]
  viability, T/C: 15.7%
[34]
  viability, T/C: 13.1%
[35]
  viability, T/C: 10%
[36]
  viability, T/C: 4.82%
[37]
  viability, T/C: 24.2%
[38]
  viability, T/C: 20.9%
[39]
  viability, T/C: 14.4%
[40]
  viability, T/C: 13.6%
[41]
  viability, T/C: 9.07%
[42]
  viability, T/C: 4.26%

## C#Cc1c(F)ccc2cc(O)cc(-c3ncc4c(N5CC6CCC(C5)N6)nc(OCC56CCCN5CC(F)C6)nc4c3F)c12 (stereo not given) + CNC(=O)c1ccc(Nc2nc(OC3CCCC3)c3c(-c4ccc5nc(C)oc5c4)c[nH]c3n2)c(OC)c1
[1]
  IC50: > 10 µM
[2]
  IC50: > 10 µM
[3]
  IC50: > 10 µM
[4]
  IC50: 3.64 µM
[5]
  IC50: < 0.0316 µM
[6]
  IC50: < 0.0316 µM
[7]
  viability, T/C: 82.3%
[8]
  viability, T/C: 77.8%
[9]
  viability, T/C: 79.1%
[10]
  viability, T/C: 73.4%
[11]
  viability, T/C: 77%
[12]
  viability, T/C: 66.8%
[13]
  viability, T/C: 88.6%
[14]
  viability, T/C: 92.6%
[15]
  viability, T/C: 79%
[16]
  viability, T/C: 91.7%
[17]
  viability, T/C: 103%
[18]
  viability, T/C: 79.2%
[19]
  viability, T/C: 64.9%
[20]
  viability, T/C: 75.3%
[21]
  viability, T/C: 66.6%
[22]
  viability, T/C: 91%
[23]
  viability, T/C: 77.4%
[24]
  viability, T/C: 56.4%
[25]
  viability, T/C: 44.4%
[26]
  viability, T/C: 56.8%
[27]
  viability, T/C: 47.4%
[28]
  viability, T/C: 53.8%
[29]
  viability, T/C: 55.8%
[30]
  viability, T/C: 38.1%
[31]
  viability, T/C: 43.2%
[32]
  viability, T/C: 35.4%
[33]
  viability, T/C: 40.4%
[34]
  viability, T/C: 46.7%
[35]
  viability, T/C: 44.4%
[36]
  viability, T/C: 29.5%
[37]
  viability, T/C: 36%
[38]
  viability, T/C: 24.8%
[39]
  viability, T/C: 30.9%
[40]
  viability, T/C: 32.2%
[41]
  viability, T/C: 31.7%
[42]
  viability, T/C: 24.4%

## CC(CO)NC(=O)c1cc(-c2ccc(Cl)cc2)nn(-c2cnn(C)c2)c1=O (stereo not given)
Compound 0.0316 µM
  viability, T/C: 92.8% and 77.6%
Compound 0.1 µM
  viability, T/C: 84.2% and 87.1%
Compound 0.316 µM
  viability, T/C: 94.1% and 107%
Compound 1 µM
  viability, T/C: 97.6% and 75.3%
Compound 3.16 µM
  viability, T/C: 108% and 92.3%
Compound 10 µM
  viability, T/C: 112% and 114%
Curve of compound
  IC50: > 10 µM

## COc1cccc2c1C(=O)c1c(O)c3c(c(O)c1C2=O)CC(O)(C(=O)CO)CC3OC1CC(N)C(O)C(C)O1 (stereo not given) + CNC(=O)c1ccc(Nc2nc(OC3CCCC3)c3c(-c4ccc5nc(C)oc5c4)c[nH]c3n2)c(OC)c1
[1]
  IC50: 0.0682 µM
[2]
  IC50: 0.0423 µM
[3]
  IC50: < 0.0316 µM
[4]
  IC50: < 0.0316 µM
[5]
  IC50: < 0.0316 µM
[6]
  IC50: < 0.0316 µM
[7]
  viability, T/C: 59%
[8]
  viability, T/C: 41.9%
[9]
  viability, T/C: 32.6%
[10]
  viability, T/C: 8.58%
[11]
  viability, T/C: 0.41%
[12]
  viability, T/C: 6.15%
[13]
  viability, T/C: 52.9%
[14]
  viability, T/C: 42.3%
[15]
  viability, T/C: 23.6%
[16]
  viability, T/C: 4.38%
[17]
  viability, T/C: 0.29%
[18]
  viability, T/C: 4.57%
[19]
  viability, T/C: 45.4%
[20]
  viability, T/C: 32.1%
[21]
  viability, T/C: 12.9%
[22]
  viability, T/C: 2.1%
[23]
  viability, T/C: 0.25%
[24]
  viability, T/C: 5.74%
[25]
  viability, T/C: 28.7%
[26]
  viability, T/C: 22.5%
[27]
  viability, T/C: 5.4%
[28]
  viability, T/C: 0.36%
[29]
  viability, T/C: 0.24%
[30]
  viability, T/C: 6.92%
[31]
  viability, T/C: 28.1%
[32]
  viability, T/C: 15.5%
[33]
  viability, T/C: 5.36%
[34]
  viability, T/C: 0.27%
[35]
  viability, T/C: 0.27%
[36]
  viability, T/C: 9.95%
[37]
  viability, T/C: 23.3%
[38]
  viability, T/C: 20.3%
[39]
  viability, T/C: 4.23%
[40]
  viability, T/C: 0.21%
[41]
  viability, T/C: 1%
[42]
  viability, T/C: 12.1%

## COc1ccc([C@@H](O)c2cc(-c3ncnc4cc(N5CCOCC5)ccc34)c(F)cc2Cl)nn1
Compound 0.0316 µM
  viability, T/C: 72.8% and 98.3%
Compound 0.1 µM
  viability, T/C: 69.7% and 91.4%
Compound 0.316 µM
  viability, T/C: 86.8% and 105%
Compound 1 µM
  viability, T/C: 108% and 82.2%
Compound 3.16 µM
  viability, T/C: 97.9% and 117%
Compound 10 µM
  viability, T/C: 65.9% and 83.9%
Curve of compound
  IC50: > 10 µM
